Data published in the NIST ThermoML archive (doi:10.1021/acs.jced.6b01071).
± gives the expanded uncertainty stated by the source.

Columns and labels:
[1] = Liquid; for mass density: 298.15 K, 101.33 kPa, Vibrating tube method; for vapor or sublimation pressure: Ebulliometric method (Recirculating still)
[2] = Boiling temperature at pressure P; conditions: 101.3 kPa; Liquid; Ebulliometric method (Recirculating still)
[3] = refractive index (Na D-line) (dimensionless); conditions: 298.15 K; 101.33 kPa; Liquid; Standard Abbe refractometry

| SMILES | mass density [1] | vapor or sublimation pressure ([1]; 381.15 K) | vapor or sublimation pressure ([1]; 381.41 K) | vapor or sublimation pressure ([1]; 395.9 K) | vapor or sublimation pressure ([1]; 396.04 K) | vapor or sublimation pressure ([1]; 406.39 K) | vapor or sublimation pressure ([1]; 406.59 K) | Boiling temperature at pressure P [2] | refractive index [3] | vapor or sublimation pressure ([1]; 384.76 K) | vapor or sublimation pressure ([1]; 400.65 K) | vapor or sublimation pressure ([1]; 411.56 K) | vapor or sublimation pressure ([1]; 309.68 K) | vapor or sublimation pressure ([1]; 320.76 K) | vapor or sublimation pressure ([1]; 328.55 K) |
| --- | --- | --- | --- | --- | --- | --- | --- | --- | --- | --- | --- | --- | --- | --- | --- |
| COCC(C)OC(C)=O (stereo unspecified) [1-methoxy-2-propyl acetate] | 961.52 ± 5 kg/m3 | 30 ± 1 kPa | 30 ± 1 kPa | 50 ± 1 kPa | 50 ± 1 kPa | 70 ± 1 kPa | 70 ± 1 kPa | 145.57 ± 0.2 °C | 1.3986 ± 0.01 |  |  |  |  |  |  |
| CN(C)C=O [dimethylformamide] | 943.89 ± 5 kg/m3 |  |  |  |  |  |  | 153.50 ± 0.2 °C | 1.4277 ± 0.01 | 30 ± 1 kPa | 50 ± 1 kPa | 70 ± 1 kPa |  |  |  |
| CO [methanol] | 786.59 ± 5 kg/m3 |  |  |  |  |  |  | 64.48 ± 0.2 °C | 1.3264 ± 0.01 |  |  |  | 30 ± 1 kPa | 50 ± 1 kPa | 70 ± 1 kPa |
